Measured values from patent publication US10610104B2, “Gastrointestinal tract detection methods, devices and systems” (priority 2016, dated 2020).

How the values were obtained:
human IL-6 = human IL-6 (Homo sapiens, UniProt P05231); details: cited from earlier work
cyclophilin = cyclophilin (Homo sapiens, UniProt P62937); details: voclosporin versus cyclosporine A; cited from earlier work
C. albicans = assay: OD600 assay under simulated GI conditions, fungal contamination with or without anti-fungal recovery media; assay type: cell-based; details: TSB containing 2.5 mg/L Amphotericin B; C. albicans 1×10^3 CFU/mL; FaSSIF-V2; 4 hour incubation
Procedure: Experiments were performed in order to simulate an ingestible device that contains sterile media that is inoculated with a sample of fluid from the GI tract and incubated in transit. The experiments were designed to evaluate whether the assay could predict total bacterial counts over a dynamic range of 10^3 CFU/mL to 10^7 CFU/mL under a series of different conditions of pH, […], fungal strains, mucin concentrations. The samples were also incubated under conditions of shear forces and temperature that simulate conditions of an ingestible device in transit within the GI tract.
Gram-negative (Escherichia coli ATCC 25922) and Gram-positive (Staphylococcus epidermidis ATCC 12228) bacterial cultures were diluted in a standard growth media (TSB) over a dynamic range of 10^7 CFU/mL to 10^3 CFU/mL. The assay utilized […], under shear (110 rpm) and at body temperature (37° C.) over a 4 hour incubation period to simulate transit of an ingestible device within the GI tract. Experiments were performed under various conditions as indicated including: different pH levels (6.5, 7.0 and 7.8); […]; […] […] Experiments were conducted in quintuplicate. All testing was completed in simulated jejunal fluid (FaSSIF-V2; available from BioRelevant (London, UK) Cat: V2FA501 Lot: 02-1408-07, pH 6.5) using a 50 μL sample volume and a 4 hour incubation period. […]

[1] = test system: inflammatory bowel disease (IBD); details: numerous murine models; cited from earlier work
[2] = binding to lipid A, the common moiety of LPS; cited from earlier work

human IL-6, sequence (P05231 30-212): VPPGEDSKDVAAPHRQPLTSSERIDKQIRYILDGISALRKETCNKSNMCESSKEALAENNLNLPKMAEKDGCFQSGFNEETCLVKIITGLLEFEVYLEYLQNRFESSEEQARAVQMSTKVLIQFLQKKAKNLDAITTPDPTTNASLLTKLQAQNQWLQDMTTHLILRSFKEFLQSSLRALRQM
cyclophilin, sequence (P62937 whole entry): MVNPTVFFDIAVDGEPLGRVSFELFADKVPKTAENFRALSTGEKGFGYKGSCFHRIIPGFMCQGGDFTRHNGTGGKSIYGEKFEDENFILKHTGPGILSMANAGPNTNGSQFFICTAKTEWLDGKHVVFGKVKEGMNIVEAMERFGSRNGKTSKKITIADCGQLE

## siltuximab: a chimeric, human-murine, immunoglobulin (Ig) Gκ mAb that binds and neutralizes human IL-6
Human IL-6
  binds and neutralizes human IL-6: high affinity and specificity

## C=C/C=C/C[C@@H](C)[C@@H](O)[C@H]1C(=O)N[C@@H](CC)C(=O)N(C)CC(=O)N(C)[C@@H](CC(C)C)C(=O)N[C@@H](C(C)C)C(=O)N(C)[C@@H](CC(C)C)C(=O)N[C@@H](C)C(=O)N[C@H](C)C(=O)N(C)[C@@H](CC(C)C)C(=O)N(C)[C@@H](CC(C)C)C(=O)N(C)[C@@H](C(C)C)C(=O)N1C [voclosporin]
cyclophilin
  binding affinity for cyclophilin: comparable

## C[C@@H]1[C@H](O)[C@@H](C)/C=C/C=C/C=C/C=C/C=C/C=C/C=C/[C@H](O[C@@H]2O[C@H](C)[C@@H](O)[C@H](N)[C@@H]2O)C[C@@H]2O[C@](O)(C[C@@H](O)C[C@@H](O)[C@H](O)CC[C@@H](O)C[C@@H](O)CC(=O)O[C@H]1C)C[C@H](O)[C@H]2C(=O)O [amphotericin B, Amphotericin B]
C. albicans
  background fungal growth (plate counts and optical density): reduced the background fungal growth

## L-glutamic acid polymer with L-alanine, L-lysine and L-tyrosine, acetate (salt) [Glatiramer acetate]
[1]
  effect on inflammation and pathological manifestations of IBD: reduce inflammation and ameliorate the pathological manifestations

B1: Lipopolysaccharide Binding Protein (LBP): Lipopolysaccharide Binding Protein, binds with high affinity to lipid A, the common moiety of LPS (protein, UniProt P18428 26-481, looked up)
Lipopolysaccharide-binding …: ANPGLVARITDKGLQYAAQEGLLALQSELLRITLPDFTGDLRIPHVGRGRYEFHSLNIHSCELLHSALRPVPGQGLSLSISDSSIRVQGRWKVRKSFFKLQGSFDVSVKGISISVNLLLGSESSGRPTVTASSCSSDIADVEVDMSGDLGWLLNLFHNQIESKFQKVLESRICEMIQKSVSSDLQPYLQTLPVTTEIDSFADIDYSLVEAPRATAQMLEVMFKGEIFHRNHRSPVTLLAAVMSLPEEHNKMVYFAISDYVFNTASLVYHEEGYLNFSITDDMIPPDSNIRLTTKSFRPFVPRLARLYPNMNLELQGSVPSAPLLNFSPGNLSVDPYMEIDAFVLLPSSSKEPVFRLSVATNVSATLTFNTSKITGFLKPGKVKVELKESKVGLFNAELLEALLNYYILNTFYPKFNDKLAEGFPLPLLKRVQLYDLGLQIHKDFLFLGANVQYMRV
[2]
  Kd: 1 nM
